From patent US20210386668A1, “Cyclodextrin for use in the treatment and prevention of late phase bronchoconstriction in allergen-induced asthma” (Universite de Liege, priority 2020, published 2021)

Test system: healthy subjects
Assay: Phase 1 clinical trial, single and multiple HPBCD inhalation
Type: in vivo, human
Text: Clinical trial protocols have been approved by an independent ethical committee (CHU Liege—University of Liege) in accordance with GCPs, Declaration of Helsinki and European regulations (EudraCT). All participants gave written informed consent before any study-specific procedure. For the phase 1 clinical trial, 8 healthy subjects (4 women and 4 men) from 18 to 40 years were recruited and enrolled in the study at the University Hospital of Liege (Belgium). Patients were randomized and received first the placebo (NaCl 0.9%) or HPBCD at 2.5 mM and 8 days after, the opposite treatment. After 1 week, all patients received HPBCD at 15 mM. One month later, all patients received HPBCD at 15 mM during 5 consecutive days. Apyrogenic and sterile HPBCD powder was diluted with NaCl 0.9% before inhalation (8 ml) with an ultrasonic nebulizer (Devilbiss 2000). General symptoms, asthma scores (ACQ), dyspnea, chest Rx, clinical biology, ECG, vital signs, spirometry, NO, sputum (induced by NaCl 4.5%) were analyzed after treatment periods. The second clinical trial (phase 2a-proof of concept) was a double-blinded, cross-over, placebo-controlled study. 17 mild to moderate asthmatic patients were included in the study at two different sites (University Hospital of Liege and University Hospital Erasme) in Belgium. Characterization visits consisted of dyspnea symptoms recording, ECG, chest Rx, clinical biology, spirometry and vital signs analysis. PD20 (provocative dose that causes a 20% fall in FEV1 from the saline alone value) to inhaled allergen was determined. […] The PD20 of the allergen was calculated from a cumulative dose-response curve, as described previously, Cataldo et al., Matrix metalloproteinase-9, but not tissue inhibitor of matrix metalloproteinase-1, increases in the sputum from allergic asthmatic patients after allergen challenge, Chest. 2002; 122(5):1553-9. All […] received a cumulative concentration of Dermatophagoides pteronyssinus with a reactivity index of 6. After 14 days wash-out period, patients were randomly divided into two groups and received either HPBCD 15 mM or Placebo (NaCl 0.9%) by inhalation (ultrasonic nebulizer (Devilbiss 2000)) twice daily. At the end of this treatment period, lung function (FEV1) was analyzed after allergen (HDM) challenge under the supervision of experienced respiratory clinical physiologists. FEV1 was measured after allergen inhalation challenge at 5, 15, 30, 60, 120, 180, 240, 300 and 360 min. After 28 days wash-out period, patients received the opposite treatment for another 14 days and the FEV1 following allergen challenge was evaluated. All clinical parameters were examined after each treatment period. The endpoint of this proof of concept study was changes in FEV1 over 0-360 min post-allergen challenges. FEV1 in early phase (0-60 min) and late phase (180-360 min) were expressed as: area under the FEV1-versus-time curve (AUC), maximum percentage fall and average percentage fall (calculated by dividing the area under the curve of the percentage fall in FEV1 by the duration of the response period). One patient who received placebo had negative maximum FEV1 decrease and negative average percentage fall in FEV1. These negative values were truncated to 0. Patients had access to […] (salbutamol 100 μg) throughout the study as an «as needed» treatment.
Data are presented as mean±SEM unless specified. The differences between mean values were estimated using a two-tailed Mann-Whitney test (animal and in vitro experiments) unless specified. All animal experiments were repeated at least 2 times; n 6 in each experimental group. ANOVA Friedman test (single dose) and Wilcoxon signed rank test (multiple doses) were used to analyze results obtained during the phase 1 clinical trial. One-tailed Wilcoxon matched pairs test was used to evaluate intra-individual differences in the proof of concept clinical trial. A P value less than 0.05 was considered significant. […]

[1] = multiple dose HPBCD 15 mM, after 5 days inhalation
[2] = multiple dose HPBCD 15 mM, after 5 days inhalation, mean ± SD
[3] = single dose, HPBCD 2.5 mM, mean ± SD
[4] = single dose, HPBCD 15 mM, mean ± SD

`CC(O)COC[C@H]1O[C@@H]2O[C@H]3[C@H](O)[C@@H](O)[C@@H](O[C@H]4[C@H](O)[C@@H](O)[C@@H](O[C@H]5[C@H](O)[C@@H](O)[C@@H](O[C@H]6[C@H](O)[C@@H](O)[C@@H](O[C@H]7[C@H](O)[C@@H](O)[C@@H](O[C@H]8[C@H](O)[C@@H](O)[C@@H](O[C@H]1[C@H](O)[C@H]2O)O[C@@H]8COCC(C)O)O[C@@H]7COCC(C)O)O[C@@H]6COCC(C)O)O[C@@H]5COCC(C)O)O[C@@H]4COCC(C)O)O[C@@H]3COCC(C)O` (stereo partly drawn) [HPBCD, 2-hydroxypropyl-beta-cyclodextrin] was tested, and the “Eosinophils (sputum) 5 h after inhalation” value (“Eosinophils (sputum) 5 h” for short) [1] was 0.00%, the QT [1] was 393.50 ms and the QtTc [1] was 393.30 ms. The FEV1 15 min after inhalation [2] was 4.13 ± 0.87 L, the FEV1 1 h after inhalation [2] was 4.07 ± 0.82 L and the FEV1 3 h after inhalation [2] was 4.11 ± 0.87 L. For the same compound, the FEV1 5 h after inhalation [2] was 4.1 ± 0.87 L, the “No measurements (ppb) 15 min after inhalation” value (shortened to “No measurements (ppb) 15 min”) [2] was 25.16 ± 9.76 ppb and the “Eosinophils (sputum) 5 h” value [3] was 0.00 ± 0.00%. The FEV1 15 min after inhalation [3] was 4.08 ± 0.87 L, the FEV1 1 h after inhalation [3] was 4.11 ± 0.83 L and the FEV1 3 h after inhalation [3] was 4.1 ± 0.82 L. For the same compound, the FEV1 5 h after inhalation [3] was 4.11 ± 0.87 L, the “No measurements (ppb) 15 min” value (single dose, HPBCD 2.5 mM, mean ± SD, n = 8) was 23.85 ± 7.56 ppb and the “Eosinophils (sputum) 5 h” value [4] was 0.20 ± 0.49%. For the same compound, the FEV1 15 min after inhalation [4] was 4.01 ± 0.87 L, the FEV1 1 h after inhalation [4] was 4.04 ± 0.86 L and the FEV1 3 h after inhalation [4] was 4.07 ± 0.85 L. For the same compound, the FEV1 5 h after inhalation [4] was 4.08 ± 0.92 L and the “No measurements (ppb) 15 min” value (single dose, HPBCD 15 mM, mean ± SD, n = 8) was 28.48 ± 17.92 ppb.
